target: T1, BRD4 bromodomains (Homo sapiens, UniProt O60885); assay: BROMOscan bromodomain competition binding assay (DiscoveRx); conditions: Kd from 11 compound concentrations ranging from 0 to 10 μM, read-out: BROMOscan Relative Activity
T1 construct: fused on or other part: T7 phage capsid protein (phage-display fusion; the phage DNA is read out by qPCR)
Procedure: Bromodomain assays were conducted to measure interactions between certain compounds and bromodomains.
The assays were conducted according to BROMOscan protocol from Discover Rx. Briefly, BRD4 bromodomains expressed as a fusion capsid protein of T7 phage were bound to acetylated peptide ligand on a solid phase and competition bindings were performed. T7 phage strains displaying bromodomains were grown in parallel in 24-well blocks in an E. coli host derived from the BL21 strain. E. coli were grown to log-phase and infected with T7 phage from a frozen stock (multiplicity of infection=0.4) and incubated with shaking at 32° C. until lysis (90-150 minutes). The lysates were centrifuged (5,000×g) and filtered (0.2 μm) to remove cell debris. […] The liganded beads were blocked with excess biotin and washed with blocking buffer (SeaBlock (Pierce), 1% BSA, 0.05% Tween 20, 1 mM DTT) to remove unbound ligand and to reduce non-specific phage binding. […] Test compounds were prepared as 1000× stocks in 100% DMSO and subsequently diluted 1:10 in monoethylene glycol (MEG) to create stocks at 100× the screening concentration (resulting stock solution is 10% DMSO/90% MEG). The compounds were then diluted directly into the assays such that the final concentration of DMSO and MEG were 0.1% and 0.9%, respectively. All reactions were performed in polystyrene 96-well plates in a final volume of 0.135 ml. […] The bromodomain concentration in the eluates was measured by qPCR. Data was collected at 11 compound concentrations ranging from 0 to 10 μM. Kd values were then derived from a standard dose-response curve generated with Hill equation (Hill Slope was set to ˜1) and a non-linear least square fit with the Levenberg-Marquardt algorithm. Response=Background+Signal−Background/1+(Kd Hill Slope/Dose Hill Slope)

Row | Kd | SMILES
1 | < 500 nM | Cc1noc(C)c1-c1ccc2nc(N3CCN(S(C)(=O)=O)CC3)nc(NCc3cncc(Cl)c3)c2c1 [Example 152, N-((5-chloropyridin-3-yl)methyl)-6-(3,5-dimethylisoxazol-4-yl)-2-(4-(methylsulfonyl)piperazin-1-yl)quinazolin-4-amine]
2 | > 5000 nM | Cc1noc(C)c1-c1ccc2nc(Oc3ccc(Cl)cc3)nc(NCc3cccc(Cl)c3)c2c1 [Example 169, N-(3-chlorobenzyl)-2-(4-chlorophenoxy)-6-(3,5-dimethylisoxazol-4-yl)quinazolin-4-amine]
3 | < 500 nM | Cc1noc(C)c1-c1ccc2nc(N3CCN(C(=O)CN(C)C)CC3)nc(NCc3cccc(Cl)c3)c2c1 [Example 37, 1-(4-(4-((3-chlorobenzyl)amino)-6-(3,5-dimethylisoxazol-4-yl)quinazolin-2-yl)piperazin-1-yl)-2-(dimethylamino)ethanone]
4 | < 500 nM | Cc1noc(C)c1-c1ccc2nc(C(=O)NCc3ccncc3)nc(NCc3cncc(Cl)c3)c2c1 [Example 207, 4-(((5-chloropyridin-3-yl)methyl)amino)-6-(3,5-dimethylisoxazol-4-yl)-N-(pyridin-4-ylmethyl)quinazoline-2-carboxamide]
5 | < 500 nM | Cc1noc(C)c1-c1ccc2nc(C(=O)NCc3cncc(F)c3)nc(NCc3cccc(Cl)c3)c2c1 [Example 192, 4-((3-chlorobenzyl)amino)-6-(3,5-dimethylisoxazol-4-yl)-N-((5-fluoropyridin-3-yl)methyl)quinazoline-2-carboxamide]
6 | < 500 nM | Cc1noc(C)c1-c1ccc2nc(N3CCN(C[C@H](C)O)CC3)nc(NCc3cccc(Cl)c3)c2c1 [Example 47, (S)-1-(4-(4-((3-chlorobenzyl)amino)-6-(3,5-dimethylisoxazol-4-yl)quinazolin-2-yl)piperazin-1-yl)propan-2-ol]
7 | < 500 nM | Cc1noc(C)c1-c1ccc2nc(-c3cnn(CCO)c3)nc(NCc3cccc(Cl)c3)c2c1 [Example 48, 2-(4-(4-((3-chlorobenzyl)amino)-6-(3,5-dimethylisoxazol-4-yl)quinazolin-2-yl)-1H-pyrazol-1-yl)ethanol]
8 | < 500 nM | Cc1noc(C)c1-c1ccc2nc(C(=O)NC3CCS(=O)(=O)CC3)nc(NCc3cccc(Cl)c3)c2c1 [Example 204, 4-((3-chlorobenzyl)amino)-6-(3,5-dimethylisoxazol-4-yl)-N-(1,1-dioxidotetrahydro-2H-thiopyran-4-yl)quinazoline-2-carboxamide]
9 | < 500 nM | Cc1noc(C)c1-c1ccc2nc(NC3CCN(C)CC3)nc(NCc3cccc(Cl)c3)c2c1 [Example 7, N4-(3-chlorobenzyl)-6-(3,5-dimethylisoxazol-4-yl)-N2-(1-methylpiperidin-4-yl)quinazoline-2,4-diamine]
10 | 500 to 5000 nM | Cc1noc(C)c1-c1ccc2nc(Cl)nc(NCc3cccc(Cl)c3)c2c1 [Example 1, 2-chloro-N-(3-chlorobenzyl)-6-(3,5-dimethylisoxazol-4-yl)quinazolin-4-amine]
11 | 500 to 5000 nM | Cc1noc(C)c1-c1ccc2nc(C(=O)NC3CCC(F)(F)CC3)nc(NCc3cccc(Cl)c3)c2c1 [Example 252, 4-((3-chlorobenzyl)amino)-N-(4,4-difluorocyclohexyl)-6-(3,5-dimethylisoxazol-4-yl)quinazoline-2-carboxamide]
12 | < 500 nM | Cc1noc(C)c1-c1ccc2nc(N3CCN(CCN(C)C)CC3)nc(NCc3cccc(Br)c3)c2c1 [Example 75, N-(3-bromobenzyl)-2-(4-(2-(dimethylamino)ethyl)piperazin-1-yl)-6-(3,5-dimethylisoxazol-4-yl)quinazolin-4-amine]
13 | < 500 nM | Cc1noc(C)c1-c1ccc2nc(N3CCN(C(=O)c4cnn(C)c4)CC3)nc(NCc3cccc(Cl)c3)c2c1 [Example 18, (4-(4-((3-chlorobenzyl)amino)-6-(3,5-dimethylisoxazol-4-yl)quinazolin-2-yl)piperazin-1-yl)(1-methyl-1H-pyrazol-4-yl)methanone]

More lines, now with the values behind:

Row | SMILES | Kd
14 | Cc1noc(C)c1-c1ccc2nc(N3CCN(CC(N)=O)CC3)nc(N3CCOC[C@@H]3c3ccccc3)c2c1 [Example 307, (S)-2-(4-(6-(3,5-dimethylisoxazol-4-yl)-4-(3-phenylmorpholino)quinazolin-2-yl)piperazin-1-yl)acetamide] | < 500 nM
15 | Cc1noc(C)c1-c1ccc2nc(N3CCN(CCN(C)C)CC3)nc(NC(C)c3cccc(Cl)c3)c2c1 (stereo not drawn) [Example 90, N-(1-(3-chlorophenyl)ethyl)-2-(4-(2-(dimethylamino)ethyl)piperazin-1-yl)-6-(3,5-dimethylisoxazol-4-yl)quinazolin-4-amine] | < 500 nM
16 | CN(C)CCN1CCN(c2nc(NCc3cccc(Cl)c3)c3cc(-c4ccc(O)nc4)ccc3n2)CC1 [Example 67, 5-(4-((3-chlorobenzyl)amino)-2-(4-(2-(dimethylamino)ethyl)piperazin-1-yl)quinazolin-6-yl)pyridin-2-ol] | 500 to 5000 nM
17 | Cc1noc(C)c1-c1ccc2nc(-c3cnn(CC(=O)N(C)C)c3)nc(N3CCOC[C@@H]3c3ccccc3)c2c1 [Example 301, (S)-2-(4-(6-(3,5-dimethylisoxazol-4-yl)-4-(3-phenylmorpholino)quinazolin-2-yl)-1H-pyrazol-1-yl)-N,N-dimethylacetamide] | < 500 nM
18 | Cc1cc(-c2ccc3nc(N4CCN(CCN(C)C)CC4)nc(NCc4cccc(Cl)c4)c3c2)cnc1O [Example 91, 5-(4-((3-chlorobenzyl)amino)-2-(4-(2-(dimethylamino)ethyl)piperazin-1-yl)quinazolin-6-yl)-3-methylpyridin-2-ol] | < 500 nM
19 | Cn1cc(-c2ccc3ncnc(Nc4ccc(Cl)cc4)c3c2)ccc1=O [Example 159, 5-(4-((4-chlorophenyl)amino)quinazolin-6-yl)-1-methylpyridin-2(1H)-one] | > 5000 nM
20 | Cc1nocc1-c1ccc2nc(N3CCN(CCN(C)C)CC3)nc(NCc3cccc(Cl)c3)c2c1 [Example 93, N-(3-chlorobenzyl)-2-(4-(2-(dimethylamino)ethyl)piperazin-1-yl)-6-(3-methylisoxazol-4-yl)quinazolin-4-amine] | < 500 nM
21 | CN(C)CCN1CCN(c2nc(NCc3cccc(Cl)c3)c3cc(-c4cnc(O)c(F)c4)ccc3n2)CC1 [Example 86, 5-(4-((3-chlorobenzyl)amino)-2-(4-(2-(dimethylamino)ethyl)piperazin-1-yl)quinazolin-6-yl)-3-fluoropyridin-2-ol] | 500 to 5000 nM
22 | Cc1noc(C)c1-c1ccc2nc(N3CCN(C(=O)CO)CC3)nc(N3CCOC[C@@H]3c3ccccc3)c2c1 [Example 305, (S)-1-(4-(6-(3,5-dimethylisoxazol-4-yl)-4-(3-phenylmorpholino)quinazolin-2-yl)piperazin-1-yl)-2-hydroxyethan-1-one] | < 500 nM
23 | Cc1noc(C)c1-c1ccc2nc(-c3cnn(CC(C)(C)O)c3)nc(N3CCN(C(=O)NC4CC4)C[C@@H]3c3ccccc3)c2c1 [Example 322, (S)—N-cyclopropyl-4-(6-(3,5-dimethylisoxazol-4-yl)-2-(1-(2-hydroxy-2-methylpropyl)-1H-pyrazol-4-yl)quinazolin-4-yl)-3-phenylpiperazine-1-carboxamide] | < 500 nM
24 | Cc1noc(C)c1-c1ccc2nc(N3CCC4(CCC(=O)N4)CC3)nc(N3CCOC[C@@H]3c3ccccc3)c2c1 [Example 314, (S)-8-(6-(3,5-dimethylisoxazol-4-yl)-4-(3-phenylmorpholino)quinazolin-2-yl)-1,8-diazaspiro[4.5]decan-2-one] | < 500 nM
